Article PMC7159882, “Polyunsaturated fatty acid analogues differentially affect cardiac NaV, CaV, and KV channels through unique mechanisms” (eLife, 2020)

Molecular target: T1, Kv7.1/KCNE1 (Homo sapiens, UniProt P51787)
T1 construct: cRNA encoding Kv7.1 (UniProt: P51787), KCNE1 (UniProt: P15382.1); expressed in transfected cells; host or cells: Xenopus laevis oocytes (cRNA injection, Kv7.1:KCNE1 3:1 by weight)
Assay: Two-electrode voltage clamp of Kv7.1/KCNE1 expressed in Xenopus oocytes
Assay type: cell-based
Parameters: Fitted slope factor of conductance vs voltage relationship: unit of the concentration uncertain
Conditions: for IKs I/I0: relative current at 0 mV
Description: Molecular Biology cRNA encoding Kv7.1 (UniProt: P51787), KCNE1 (UniProt: P15382.1), Nav1.5 (UniProt: Q14524.1), Nav β1 (UniProt: […]), Nav β3 (UniProt: […]), Cav1.2 (GenBank: CAA84346), Cav β3 (Uniprot: P54286), Cav β2 (Uniprot: P54288), and Cav α2δ (Uniprot: P13806) were transcribed using the mMessage mMachine T7 kit (Ambion). 50 ng of cRNA was injected into defolliculated Xenopus laevis oocytes (Ecocyte, Austin, TX): For Kv7.1/KCNE1 channel expression, we injected a 3:1, weight:weight (Kv7.1:KCNE1) cRNA ratio. For Nav1.5 channel expression, we injected a 2:1, weight:weight (Nav1.5:β1) cRNA ratio. For Cav1.2 channel expression, we injected a 2:1:1, weight:weight (Cav1.2:β3:α2δ) cRNA ratio. The exact stoichiometry for channel macromolecular complexes, including α -subunits and auxiliary subunits is not clear for many ion channels. For example, there have been multiple reported stoichiometries for Kv7.1:KCNE1 determined in heterologous expression systems with some groups reporting flexible stoichiometry of 4 Kv7.1: 1–4 KCNE1 and others reporting a fixed stoichiometry of 4 Kv7.1: 2 KCNE1 ([Murray et al., 2016]; [Nakajo et al., 2010]). The ratios of cRNA of α- and auxiliary subunits that we injected in Xenopus laevis oocytes are such that all α-subunits are assumed to be in complex with auxiliary subunits. This allows a more homogenous population of ion channels with auxiliary subunits. One caveat to expressing ion channels as macromolecular complexes is that there are many other auxiliary subunits that could associate with the channel α -subunit that are present in cardiomyocytes and have the potential to alter PUFA-induced effects, but that are not being co-expressed in our experiments. In this work, we are co-expressing some of the auxiliary subunits that have been primarily reported to associate with their respective α -subunits in cardiomyocytes. Following cRNA injection, cells were incubated for 72–96 hr in standard ND96 solution (96 mM NaCl, 2 mM KCl, 1 mM MgCl2, 1.8 mM CaCl2, 5 mM HEPES; pH = 7.5) containing 1 mM pyruvate at 16°C prior to electrophysiological recordings.
Xenopus laevis oocytes were recorded in the two-electrode voltage clamp (TEVC) configuration. Recording pipettes were filled with 3 M KCl. The recording chamber was filled with ND96 (96 mM NaCl, 2 mM KCl, 1 mM MgCl2, 1.8 mM CaCl2, 5 mM HEPES; pH 7.5). For Cav1.2/β3/α2δ channel recordings, Xenopus oocytes were injected with 50 nl of 100 mM EGTA and incubated at 10°C for 30 min prior to electrophysiological recordings in order to sequester cytosolic calcium. In addition, Cav1.2/β3/α2δ channel recordings were done in Ca^2+-free solutions, using Ba^2+ as the charge carrier, to prevent calcium-dependent inactivation of Cav1.2/β3/α2δ channels. Calcium-dependent inactivation was not studied in this work, due to the presence of large calcium-activated chloride currents present in Xenopus laevis oocytes. PUFAs were obtained from Cayman Chemical (Ann Arbor, MI.) or synthesized in house (Linköping, Sweden) through methods previously described ([Bohannon et al., 2020]) and kept at −20 °C as 100 mM stock solutions in ethanol. […] PUFAs were perfused into the recording chamber using the Rainin Dynamax Peristaltic Pump (Model RP-1) (Rainin Instrument Co., Oakland, CA. USA).
Electrophysiological recordings were obtained using Clampex 10.3 software (Axon, pClamp, Molecular Devices). To measure Kv7.1/KCNE1 currents we apply PUFAs as the membrane potential is stepped every 30 s from −80 mV to 0 mV for 5 s before stepping to −40 mV and back to −80 mV to ensure that the PUFA effects on the current at 0 mV reached steady state. A voltage-step protocol was used to measure the current vs. voltage (I-V) relationship before PUFA application and after the PUFA effects had reached steady state for each concentration of PUFA. Cells were held at −80 mV followed by a hyperpolarizing prepulse to −140 mV. […]

Structure (SMILES) | Fitted slope factor of conductance vs voltage relationship (0.2 μM) | Gmax/Gmax0 (0.2 μM) | ΔV0.5 (voltage dependence of activation) (0.2 μM) | IKs I/I0 (0.2 μM) | Fitted slope factor of conductance vs voltage relationship (0.7 μM) | Gmax/Gmax0 (0.7 μM) | ΔV0.5 (voltage dependence of activation) (0.7 μM) | IKs I/I0 (0.7 μM) | Fitted slope factor of conductance vs voltage relationship (2 μM) | Gmax/Gmax0 (2 μM) | ΔV0.5 (voltage dependence of activation) (2 μM) | IKs I/I0 (2 μM) | Fitted slope factor of conductance vs voltage relationship (7 μM) | Gmax/Gmax0 (7 μM) | ΔV0.5 (voltage dependence of activation) (7 μM) | Fitted slope factor of conductance vs voltage relationship (20 μM) | Gmax/Gmax0 (20 μM) | ΔV0.5 (voltage dependence of activation) (20 μM) | IKs I/I0 (20 μM) | IKs I/I0 (7 μM) | also measured
CC/C=C\C/C=C\C/C=C\C/C=C\C/C=C\C/C=C\CCC(=O)NCC(=O)O [DHA-glycine, docosahexaenoyl glycine] | 16.5 ± 0.49 mV | 1.3 ± 0.1 | -2.0 ± 0.8 mV | 1.3 ± 0.1 | 16.6 ± 0.45 mV | 1.5 ± 0.1 | -3.0 ± 1.0 mV | 1.7 ± 0.2 | 16.6 ± 0.52 mV | 1.7 ± 0.2 | -5.8 ± 0.9 mV | 2.4 ± 0.5 | 17.0 ± 0.56 mV | 1.9 ± 0.2 | −10.5 ± 1.0 mV | 17.9 ± 0.68 mV | 2.0 ± 0.2 | -16.5 ± 1.3 mV | 5.0 ± 1.3 | – | –
CCCCC/C=C\C/C=C\CC/C=C\CCCC(=O)NCC(=O)O [Pin-glycine] | 17.9 ± 0.83 mV | 1.0 ± 0.1 | 3.9 ± 0.6 mV | 0.7 ± 0.1 | 17.8 ± 0.84 mV | 1.2 ± 0.1 | 2.3 ± 0.2 mV | 1.0 ± 0.1 | 17.9 ± 0.91 mV | 1.3 ± 0.1 | 2.3 ± 0.7 mV | 1.1 ± 0.1 | 18.7 ± 1.1 mV | 1.7 ± 0.1 | – | 20.9 ± 1.4 mV | 1.7 ± 0.1 | -19.9 ± 2.4 mV | 3.6 ± 0.2 | – | ΔV0.5 (voltage dependence of activation) (7 μM, listed as pin-glycine): -8.5 ± 1.7 mV; IKs I/I0 (7 μM, listed as pin-glycine): 2.4 ± 0.2

The next lines start with results.

Fitted slope factor of conductance vs voltage relationship (0.2 μM) | Gmax/Gmax0 (0.2 μM) | ΔV0.5 (voltage dependence of activation) (0.2 μM) | IKs I/I0 (0.2 μM) | Fitted slope factor of conductance vs voltage relationship (0.7 μM) | Gmax/Gmax0 (0.7 μM) | ΔV0.5 (voltage dependence of activation) (0.7 μM) | IKs I/I0 (0.7 μM) | Fitted slope factor of conductance vs voltage relationship (2 μM) | Gmax/Gmax0 (2 μM) | ΔV0.5 (voltage dependence of activation) (2 μM) | IKs I/I0 (2 μM) | Fitted slope factor of conductance vs voltage relationship (7 μM) | Gmax/Gmax0 (7 μM) | ΔV0.5 (voltage dependence of activation) (7 μM) | Fitted slope factor of conductance vs voltage relationship (20 μM) | Gmax/Gmax0 (20 μM) | ΔV0.5 (voltage dependence of activation) (20 μM) | IKs I/I0 (20 μM) | IKs I/I0 (7 μM) | Structure (SMILES) | also measured
18.2 ± 0.89 mV | 1.2 ± 0.1 | -2.7 ± 1.5 mV | 1.2± 0.1 | 19.0 ± 1.0 mV | 1.3 ± 0.1 | -3.3 ± 3.0 mV | 1.4 ± 0.1 | 19.2 ± 1.2 mV | 1.8 ± 0.2 | -10.0 ± 2.8 mV | 2.5 ± 0.4 | 20.6 ± 1.5 mV | 2.3 ± 0.2 | −23.8 ± 1.6 mV | 22.1 ± 1.7 mV | 2.4 ± 0.2 | -26.4 ± 4.4 mV | 5.3 ± 0.5 | 5.1 ± 0.4 (p=0.002) | CCCCC/C=C\C/C=C\CCCCCCCC(=O)NCC(=O)O [Lin-glycine] | ΔV0.5 (voltage dependence of activation) (7 μM, listed as lin-glycine): -23.8 ± 1.6 mV; IKs I/I0 (7 μM, listed as lin-glycine): 5.1 ± 0.4
17.7 ± 0.76 mV | 1.0 ± 0.03 | 1.3 ± 0.7 mV | 1.0 ± 0.1 | 17.7 ± 0.77 mV | 1.1 ± 0.02 | -0.3 ± 1.4 mV | 1.2 ± 0.2 | 18.6 ± 1.0 mV | 1.7 ± 0.4 | -12.3 ± 3.1 mV | 3.2 ± 0.9 | 18.1 ± 1.0 mV | 1.9 ± 0.6 | −39.9 ± 3.6 mV | 12.2 ± 1.8 mV | 2.0 ± 0.6 | -73.1 ± 2.6 mV | 10.4 ± 4.0 | 7.7 ± 2.9 (p=0.14) | CCCCC/C=C\C/C=C\CCCCCCCC(=O)NCCS(=O)(=O)O [Lin-taurine, Linoleoyl taurine] | ΔV0.5 (voltage dependence of activation) (7 μM, listed as lin-taurine): -39.9 ± 3.6 mV; IKs I/I0 (7 μM, listed as lin-taurine): 7.7 ± 2.9
16.9 ± 0.65 mV | 1.0 ± 0.1 | 0.7 ± 0.8 mV | 1.0 ± 0.02 | 17.2 ± 0.62 mV | 0.9 ± 0.02 | 0.9 ± 1.1 mV | 1.0 ± 0.03 | 17.4 ± 0.60 mV | 0.9 ± 0.02 | 0.6 ± 1.1 mV | 1.0 ± 0.04 | 18.2 ± 0.59 mV | 0.9 ± 0.03 | –1.8 ± 2.6 mV | 18.7 ± 0.73 mV | 0.9 ± 0.02 | -8.5 ± 4.9 mV | 1.3 ± 0.2 | – | CCCCC/C=C\C/C=C\C/C=C\C/C=C\CCCC(=O)NCCS(=O)(=O)O [N-AT, N-arachidonoyl taurine] | concentrations at which the effects on IKs appear (I/I0 at 0 mV): > 20 µM
